These results are taken from patent US5393744A, “Glucosyl phosphotriesters of thymidine” (Institut Pasteur, priority 1988, dated 1995).

The structures appear in SMILES notation.

Common to all, as to type: cell-based
In test [1] the test system is recombinant retrovirus of murine origin (MoMLV). The experiment in a line: Residual virus (clones of βgal+ cells) after infection of mouse 3T3 test cells with LacZ recombinant MoMLV retrovirus. The conditions noted are these: 3T3 cells; for residual virus (% not inhibited) at 10 µM / residual virus (% not inhibited) at 1 µM / residual virus (% not inhibited) at 0.1 µM / residual virus (% not inhibited) at 100 µM: NIH3T3, 48 hours after infection, mean of several experiments, read-out: % of the residual virus (not inhibited by the product); for residual virus (% not inhibited) at 10 µM: 10^-5 M; for residual virus (% not inhibited) at 1 µM: 10^-6 M; for residual virus (% not inhibited) at 0.1 µM: 10^-7 M; for residual virus (% not inhibited) at 100 µM: 10^-4 M. The procedure: The virus used is a recombinant retrovirus of murine origin (MoMLV) in which a reporter gene (LacZ) has been introduced.
Fixed amounts of LacZ recombinant retroviruses are placed in the presence of mouse infectable test cells (3T3) with or without the product to be tested. To each recombinant retrovirus corresponds a clone of β gal^+ cells. The number of clones of βgal^+ cells is read 48 hours after the infection. The % of the residual virus (not inhibited by the product) is indicated in the following table (mean of several independent experiments): […]

Test [2] has as its system HIV-1 virus. The experiment in a line: Infection of activated lymphocytes by the lysates of infected macrophages (co-culture, reverse transcriptase activity). The procedure:
(§1) The drugs 6651, AZT, 6714 and ddT were diluted in DMSO.
(§2) The virus HIV-1 utilized is derived from a culture supernatant of CEM-LAV 1 cells; these latter are maintained by the addition at each passage (every 3 or 4 days) of uninfected CEM cells. The titre of the virus in the clarified culture supernatant is higher than 10^6 cpm/ml in reverse transcriptase activity and 10^3 infectious units/ml on lymphocytes of sero-negative donors.
The lymphocytes were isolated from the peripheral blood of sero-negative donors on a Ficoll^R gradient (MSL, Eurobio). The lymphocytes thus obtained were stimulated with the phytohemaglutinin p(PHA-p) for 3 days before their utilization.
The lymphocytes are cultivated in RPMI 1640 medium, supplemented with 10% of fetal calf serum, 10% of interleukin 2, 2 μg/ml of polybrene, 1% of glutamine, 1% of antibiotics.
(§3) The macrophages were obtained from a deleucocytation pocket. The mononucleated cells were separated on a Ficoll^R gradient. The cells were adjusted to 50.10^6 cells/ml in the RPMI 1640 medium (MBA) containing 20% fetal calf serum (Flow), 10 mM Hepes (Sigma), 1% of PSN and 1% of glutamine (Gibco). After 1 h of incubation at 4° C. with gentle shaking, the macrophages agglutinate among themselves. The agglutinated macrophages are sedimented for 15 mn at 4° C. The supernatant containing an enrichment in lymphocytes was removed and the pellet enriched in macrophages was diluted to 5.10^6 cells/ml in the medium previously described. The cell suspension was then placed in Petri dishes of 60 mm diameter and placed at 37° C. for 1 h 30. The unattached cells are removed and the washed cell carpet was then detached with a scraper. The cells thus recovered were used directly for the study.
(§4) For this study, the production of HIV-1 virus by infected macrophages in the presence or absence of the drugs 6714 or ddT and 6651 or AZT were monitored either in continuous culture for at least 30 days or after lysis of the macrophages at day +14 and infection of lymphocytes by this lysate.
The quantity of cells placed in culture and the conditions of infection are identical with those previously described.
At day 14 after infection, the macrophages were lysed by two successive freezings to -20° C. and thawings at 37° C. The lysate recovered was then utilized as inoculum to infect 3.10^6 activated lymphocytes derived from a sero-negative donor. After 1 h of absorption, the lymphocytes were adjusted to 10^6 cells per ml and the drugs were added at the concentrations corresponding to those of the lysate.
The lymphocytes were subcultured every 3 or 4 days and an assay of the reverse transcriptase was carried out starting from the culture supernatant at each passage.
(§5) 3) Measurement of the reverse transcriptase activity
(§6) The reverse transcriptase activity is assayed starting from 1 ml of culture supernatant concentrated 100 times by ultra-centrifugation for 5 mn at 95.000 rpm (Rotor TL 100^R Beckman).
(§7) The pellet is resuspended in 10 μl of NTE Triton^R ×100 0.1%.
(§8) After 1 h at 37° C., the acid-insoluble products are precipitated by 20% trichloroacetic acid, filtered onto 0.45μ Millipore^R and the B radioactivity is measured with the aid of a Kontron scintillation counter.

Test [3] concerns HIV-1 virus. The experiment in a line: Replication of HIV-1 in macrophages of sero-negative donors, continuous culture (reverse transcriptase activity). The procedure:
as §1, §2, §3, §4
For each test, 15.10^6 cells were or were not infected with the HIV-1 virus (6000 cpm/10^6 cells). After 1 h of absorption at 37° C., the cells were placed in 6-wells Costar plates and 5.10^-5 M or 10^-5 M of the drugs 6714 and ddT and 10^-5 M, 10^-6 M or 10^-7 M of the drugs 6651 and AZT were added to the culture medium. The medium was changed every 3 or 4 days and the reverse transcriptase activity was determined in the culture supernatant. The drugs were added at each passage to the culture medium at the respective concentrations indicated above.
as §5, §6, §7, §8

Regarding `CCCCCCCCCCCCCCCCOP(=O)(OCC1CCC(n2cc(C)c(=O)[nH]c2=O)O1)OCC1OC(O)C(O)C(O)C1O` (stereo not shown) [compound 6650, 6-glucosyl hexadecyl 5'-(3'-deoxy) thymidinyl], in test [1], the residual virus (% not inhibited) at 10 µM came out at 79%, the residual virus (% not inhibited) at 1 µM is 78% and the residual virus (% not inhibited) at 0.1 µM is 96%.
As to `Cc1cn([C@H]2CC[C@@H](CO)O2)c(=O)[nH]c1=O` [ddT, 3'-deoxy-thymidine, reference compound], the “viral production by activated lymphocytes” value with HIV-1 virus [2] (5.10^-5 M) is on record as “seems to be lower”. Besides, in the test with HIV-1 virus [2] (10^-5 M), the “viral production by activated lymphocytes, compared to untreated lysate” value is given as “comparable to the untreated lysate”. In addition, in the test on HIV-1 virus [2] (lysate at day 14), the “viral production by activated lymphocytes with lysates of infected treated macrophages (general statement)” value is on record as “make it possible to obtain a vital production by activated lymphocytes”. Also, the “multiplication of the HIV-1 virus in the macrophages” value with HIV-1 virus [2] (whatever the concentration tested, 5.10^-6 M or 10^-5 M) is listed as “there is multiplication of the HIV-1 virus in the macrophages, but the escape of the virus seems to be blocked”. For the same molecule, the “proliferation of the HIV-1 virus in the macrophages” value with HIV-1 virus [3] (5.10^-5 M and 10^-5 M) is “block the proliferation of the HIV-1 virus in the macrophages”. Further, in test [1], the residual virus (% not inhibited) at 10 µM stood at 78%, the residual virus (% not inhibited) at 1 µM is 87% and the residual virus (% not inhibited) at 0.1 µM amounted to 101%.
`Cc1cn([C@H]2C[C@H](N=[N+]=[N-])[C@@H](CO)O2)c(=O)[nH]c1=O` [AZT, 3'-azido 3'-deoxythymidine, reference compound]: the “viral production on the lymphocytes with the lysates of treated macrophages” value with HIV-1 virus [2] (10^-5 M, 10^-6 M and 10^-7 M (FIG. 4d)) was “no viral production is obtained on the lymphocytes”. The “multiplication of the HIV-1 virus at the interior of the macrophage” value in the test with HIV-1 virus [2] (whatever the concentration tested, 10^-5 M, 10^-6 M and 10^-7 M) is listed as “there is no multiplication of the HIV-1 virus at the interior of the macrophage”. Also, the “proliferation of the HIV-1 virus in the macrophages” value with HIV-1 virus [3] (10^-5 M, 10^-6 M and 10^-7 M) was “block the proliferation of the HIV-1 virus in the macrophages”. Also, in test [1], the residual virus (% not inhibited) at 100 µM worked out at 0%, the residual virus (% not inhibited) at 10 µM was 0%, the residual virus (% not inhibited) at 1 µM is 0% and the residual virus (% not inhibited) at 0.1 µM worked out at 1%. Besides, the “retroviral activity (in words)” value in test [1] (recombinant MoMLV) is “active by themselves”.
For the molecule `Cc1cn([C@H]2C[C@H](N=[N+]=[N-])[C@@H](COP(=O)(O)OC[C@H]3OC(O)[C@H](O)[C@@H](O)[C@@H]3O)O2)c(=O)[nH]c1=O` (stereo partly shown) [compound 6715, 6-glucosyl 5' (3'-azido)-thymidinyl phosphate], in test [1], the residual virus (% not inhibited) at 100 µM was 0%, the residual virus (% not inhibited) at 10 µM stood at 0% and the residual virus (% not inhibited) at 1 µM is 3%.
